What all share (assay): Eurofins kinase selectivity profile against 380 other human recombinant kinases (Table S2)
Common to all, as to type: biochemical

Test [1] deals with T1, 380 human recombinant protein kinases (Homo sapiens, UniProt P00519, H396P).
T1 construct: purchased Eurofins (Celle Lévescault)
To be noted: Abl (H396P) (h), read-out: Inhibition rate. A digest of the protocol: (§1)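 Values come from a contract kinase-profiling service that tested the compound at multiple concentrations across 380 recombinant human kinases, as an off-target check against the MK2 activity.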

Test [2] addresses T2, 380 human recombinant protein kinases (Homo sapiens, UniProt Q9UQ07).
T2 construct: purchased Eurofins (Celle Lévescault)
T2 sequence (Q9UQ07 1-419): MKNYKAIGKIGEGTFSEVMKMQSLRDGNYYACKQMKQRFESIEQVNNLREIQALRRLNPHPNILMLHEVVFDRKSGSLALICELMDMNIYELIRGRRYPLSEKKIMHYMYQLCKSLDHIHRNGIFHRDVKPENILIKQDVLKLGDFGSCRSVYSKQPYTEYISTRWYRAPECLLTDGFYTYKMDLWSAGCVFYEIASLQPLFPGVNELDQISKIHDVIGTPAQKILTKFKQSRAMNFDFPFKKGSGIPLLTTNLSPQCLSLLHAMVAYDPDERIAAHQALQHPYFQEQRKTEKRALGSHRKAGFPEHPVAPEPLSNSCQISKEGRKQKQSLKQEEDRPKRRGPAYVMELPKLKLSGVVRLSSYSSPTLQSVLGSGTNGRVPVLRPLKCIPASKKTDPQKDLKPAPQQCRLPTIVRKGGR
Particulars: MOK(h), read-out: Inhibition rate. A digest of the protocol:
as §1

For test [3], the target named is T3, 380 human recombinant protein kinases (Homo sapiens, UniProt P22607).
T3 construct: purchased Eurofins (Celle Lévescault)
Particulars: FGFR3(h), read-out: Inhibition rate. In outline:
as §1

The target in test [4] is T4, 380 human recombinant protein kinases (Homo sapiens, UniProt P21709).
T4 construct: purchased Eurofins (Celle Lévescault)
T4 sequence (P21709 26-976): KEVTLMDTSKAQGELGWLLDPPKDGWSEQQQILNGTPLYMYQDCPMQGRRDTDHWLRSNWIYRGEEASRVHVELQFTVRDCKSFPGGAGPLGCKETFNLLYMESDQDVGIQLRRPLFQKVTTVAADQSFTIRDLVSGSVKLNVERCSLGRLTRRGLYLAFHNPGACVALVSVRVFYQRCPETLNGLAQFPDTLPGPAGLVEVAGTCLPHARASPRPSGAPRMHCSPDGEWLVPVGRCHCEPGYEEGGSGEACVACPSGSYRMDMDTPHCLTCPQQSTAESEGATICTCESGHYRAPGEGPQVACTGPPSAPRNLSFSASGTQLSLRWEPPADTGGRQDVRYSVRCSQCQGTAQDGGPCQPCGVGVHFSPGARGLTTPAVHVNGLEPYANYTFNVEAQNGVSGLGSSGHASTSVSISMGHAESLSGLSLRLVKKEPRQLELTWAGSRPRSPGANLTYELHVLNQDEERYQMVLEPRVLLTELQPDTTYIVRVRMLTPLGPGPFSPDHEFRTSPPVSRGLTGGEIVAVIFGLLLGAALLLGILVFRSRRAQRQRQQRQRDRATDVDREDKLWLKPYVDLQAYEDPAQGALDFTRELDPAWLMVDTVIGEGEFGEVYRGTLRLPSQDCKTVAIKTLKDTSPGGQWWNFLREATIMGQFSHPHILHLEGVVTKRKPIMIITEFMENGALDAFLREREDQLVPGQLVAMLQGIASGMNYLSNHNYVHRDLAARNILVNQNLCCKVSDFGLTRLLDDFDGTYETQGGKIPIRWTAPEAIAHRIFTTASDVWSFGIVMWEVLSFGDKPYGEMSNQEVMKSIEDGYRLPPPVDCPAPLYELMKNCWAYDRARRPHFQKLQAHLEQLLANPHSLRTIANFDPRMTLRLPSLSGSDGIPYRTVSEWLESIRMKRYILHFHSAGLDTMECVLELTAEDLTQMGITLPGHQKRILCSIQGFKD
Particulars: EphA1(h), read-out: Inhibition rate. In outline: as §1

The target of test [5] is T5, 380 human recombinant protein kinases (Homo sapiens, UniProt Q14012).
T5 construct: purchased Eurofins (Celle Lévescault)
Particulars: CaMKI(h), read-out: Inhibition rate. A digest of the protocol:
as §1

T5 sequence (Q14012 whole entry): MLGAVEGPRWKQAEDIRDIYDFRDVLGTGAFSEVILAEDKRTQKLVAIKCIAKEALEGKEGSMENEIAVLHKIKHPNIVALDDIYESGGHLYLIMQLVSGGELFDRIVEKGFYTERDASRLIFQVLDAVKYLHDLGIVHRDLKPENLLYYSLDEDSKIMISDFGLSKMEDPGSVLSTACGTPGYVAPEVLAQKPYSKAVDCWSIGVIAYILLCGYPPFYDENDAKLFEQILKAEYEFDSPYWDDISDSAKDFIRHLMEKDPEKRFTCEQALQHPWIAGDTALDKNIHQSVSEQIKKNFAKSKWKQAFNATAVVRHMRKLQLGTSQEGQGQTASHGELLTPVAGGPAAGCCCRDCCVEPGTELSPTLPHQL
T3 sequence (P22607 23-806): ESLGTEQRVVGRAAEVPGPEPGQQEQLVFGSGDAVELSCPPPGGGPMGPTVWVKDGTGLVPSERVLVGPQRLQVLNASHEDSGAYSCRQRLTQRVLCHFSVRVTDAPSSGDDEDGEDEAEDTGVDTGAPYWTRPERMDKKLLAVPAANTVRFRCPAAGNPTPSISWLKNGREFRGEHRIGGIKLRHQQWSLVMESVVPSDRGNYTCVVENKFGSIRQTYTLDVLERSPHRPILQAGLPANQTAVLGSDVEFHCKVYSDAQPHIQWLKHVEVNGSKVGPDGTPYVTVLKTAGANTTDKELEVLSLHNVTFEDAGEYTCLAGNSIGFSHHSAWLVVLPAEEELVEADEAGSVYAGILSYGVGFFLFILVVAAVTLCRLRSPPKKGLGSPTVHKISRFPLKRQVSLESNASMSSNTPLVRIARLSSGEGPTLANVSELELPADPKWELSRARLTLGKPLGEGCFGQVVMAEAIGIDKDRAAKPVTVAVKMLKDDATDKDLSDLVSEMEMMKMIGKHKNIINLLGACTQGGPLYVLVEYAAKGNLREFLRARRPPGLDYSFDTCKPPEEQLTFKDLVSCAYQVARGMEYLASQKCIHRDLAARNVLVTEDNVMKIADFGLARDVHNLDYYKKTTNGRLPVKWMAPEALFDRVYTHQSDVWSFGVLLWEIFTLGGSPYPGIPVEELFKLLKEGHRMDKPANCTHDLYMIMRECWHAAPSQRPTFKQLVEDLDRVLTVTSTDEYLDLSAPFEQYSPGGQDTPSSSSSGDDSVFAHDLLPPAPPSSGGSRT

Consider `C=CC(=O)Nc1cc(-c2cc(-c3cc4c([nH]3)CCNC4=O)ccn2)ccc1OC(F)(F)F` [compound 11], for which the inhibition at 0.01 µM was 6% in test [1] (10 nM); 11% in test [2] (10 nM); 2% in test [3] (10 nM); -2% in test [4] (10 nM); -3% in test [5] (10 nM). The inhibition at 0.1 µM in test [1] (100 nM) was 3%; in test [2] (100 nM) it was 7%; in test [3] (100 nM), 9%; in test [4] (100 nM) it was -5%; in test [5] (100 nM), -3%. Moreover, the inhibition at 1 µM in test [1] (1000 nM) was 1%; in test [2] (1000 nM), 2%; in test [3] (1000 nM) it was 0%; in test [4] (1000 nM), -2%; in test [5] (1000 nM) it was -6%.

For orientation: inhibition means the change of the read-out against control, counted positive when it falls.
